Results reported in patent US20090076032A1, “Derivatives of 18Beta-Glycyrrhetinic Acid” (priority 2006, published 2009).
Read-outs that look alike come from different tables or passages of the source.

What was measured:
[1] = tested on: normal human keratinocytes (NHEKa); type: cell-based; conditions: 24 hours
Procedure: The cells used were normal human keratinocytes (NHEKa). All cells were cultured in T75 flasks according to the supplier's guidelines for maintenance of stocks. Frozen stocks of cells that had gone through two passages were seeded into T25 flasks at a seeding density of 2.5×10^3 cells per cm^2. The cells were then left to grow over 5 days with media changes being carried out every two days.
Cell culture treatment media were prepared for all the test compounds at four concentrations, namely 1 μM, 2.5 μM, 5 μM and 10 μM (final concentration). Control treatments on cells of normal media (no treatment) and DMSO were also carried out.
All treatment media were sterilised by filtration and added to the T25 flasks after removal of spent media. The cells were then incubated at 37° C. for 24 hours. The treatment media were removed from the T25 flasks and the cells washed with 5 ml of PBS before 1 ml of Trypsin/EDTA (TE) (Cascade, Mansfield, UK) solution was added to the flaks and left for approximately 8-10 minutes for the cells to lift off the growth surface. The trypsin was neutralised with 3 ml Trypsin Neutraliser (TN) (Cascade). The cells were then harvested and transferred to a separate 15 ml centrifuge tube for each treatment regime. The cells were spun at 180×g for 7 minutes and the medium was removed.
The cells were resuspended in 1 ml of ice cold PBS before being transferred to a microcentrifuge tube and spun at 200×g for 2 minutes. The PBS was removed and the cells were resuspended in 100 μl of binding buffer (10 mM Hepes, 140 mM NaCl, 2.5 mM CaCl2, pH 7.4) before the addition of 5 μl of a propidium iodide (PI) staining solution (BD Biosciences, Cowley, UK). The cells were incubated at 20° C. for 5 minutes before the addition of 300 μl of binding buffer followed by immediate analysis by flow cytometry. Cells taking up the PI stain were dead, cells not staining with PI were viable. The level of staining within the cells could be viewed by flow cytometry.
This type of analysis takes account of the natural variability in the growth and survival of different batches of cells. Data presented are from three repeats +SEM.

[2] = tested on: Normal human keratinocyte (NHEKa) cells; experiment: NHEKa cell proliferation assay (ATP levels, CellTitre-Glo), example 11; type: cell-based
Procedure: Normal human keratinocyte (NHEKa) cells were cultured in the presence and absence of set concentrations of the five 18β-glycyrrhetinic acid derivatives, in multi-well assay plates (96), over a five-day period. The cells, seeded at a density of 5,000 or 2,500 cells per well, were cultured in keratinocyte growth medium (KGM) (Cascade Biologics), to which retinol and various concentrations of the 18β-glycyrrhetinic acid derivatives dissolved in KGM and DMSO were added. Control treatments included KGM only, KGM and retinol, and KGM and DMSO.
After the five-day period, cell proliferation was determined by assay of ATP levels (directly associated with cell density) using a commercially available kit (CellTitre-Glo, Promega). In the presence of suitable controls, reduced proliferation (cell growth measured by ATP generation) indicates an anti-proliferative effect of a given 18β-glycyrrhetinic acid derivative.

NHEKa cells = experiment: NHEKa cell viability/proliferation assay, amended plate design (ATP luminescence), example 12; conditions: retinol 500 nM; for luminescence compared to the controls: 2.5 μM inhibitor
Procedure: To obtain a direct comparison of each inhibitor compared with carbenoxolone, the design of the assay was amended, so that each plate contained a range of different inhibitors at the same concentration compared to carbenoxolone. This removed inter-plate variation when comparing inhibitors used at the same concentration.
The medium (200 μl in each well) was replaced after 24 and 72 hours of growth with fresh pre-warmed medium containing retinol (500 nM final concentration) and the indicated inhibitor, consequently the length of treatment was 72 hours.

[3] = biological target: T1, recombinant human retinol dehydrogenase enzyme 2 (hRoDH-E2) (Homo sapiens, UniProt Q9BPW9); experiment: Spectrometric hRoDH-E2 activity assay (retinal generation at 400 nm); type: biochemical; conditions: E. coli RIL (+hRoDH-E2) SS, 15.625-250 μM, 2.5% DMSO, 125 μM retinol
T1 construct: host or cells: E. coli RIL
Procedure: A reaction mix was prepared, consisting of a buffered solution containing excess retinol (10 mM HEPES, 150 mM KCl, 2 mM EDTA, pH 8.0; 0.02% Tween 80; 125 μM retinol). Preliminary experiments concluded that sufficient cofactor was present in the crude enzyme source, therefore, this was not supplemented into the reaction buffer. The enzyme source was provided by the BioCatalysis Centre, University of Exeter, as a crude sonicated supernatant (SS) from harvested E. coli RIL cells transfected with the hRoDH-E2 expression vector. […] The reaction, initiated by the addition of enzyme (accounting for 5% total reaction volume), was monitored at 400 nm to measure the generation of retinal from retinol. The rate of retinal generation was determined as the change in milli-absorbance units per minute (mAbs/min).
Multi-well assay plates (96) were preloaded with DMSO (2.5% final reaction volume), containing inhibitor where required. […] The contents of each well were mixed by aspiration and the plate loaded into a multi-well plate reader set at 37° C. The generation of retinal was monitored at 400 nm over 30 minutes, during which time the reaction reached maximum velocity under uninhibited conditions after 600 seconds and began to decelerate after 1200 seconds in each case tested. […]

[4] = all four concentrations (1, 2.5, 5 and 10 μM)

T1 sequence (Q9BPW9 18-319): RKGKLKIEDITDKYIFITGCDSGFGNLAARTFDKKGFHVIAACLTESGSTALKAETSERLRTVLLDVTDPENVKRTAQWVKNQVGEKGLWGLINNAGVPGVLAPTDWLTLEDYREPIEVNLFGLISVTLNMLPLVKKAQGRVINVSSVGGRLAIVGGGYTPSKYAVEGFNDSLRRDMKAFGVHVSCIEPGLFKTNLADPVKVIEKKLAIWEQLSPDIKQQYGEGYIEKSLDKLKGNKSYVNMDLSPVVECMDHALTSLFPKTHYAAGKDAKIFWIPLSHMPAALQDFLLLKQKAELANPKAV

| Compound | viability of NHEKa cells (proportion of viable cells referenced to DMSO) [1, 4] | luminescence compared to the controls (NHEKa cells) | other results |
| --- | --- | --- | --- |
| CC1(C)[C@@H](OC(=O)[C@@H]2CCCC[C@@H]2C(=O)O)CC[C@]2(C)[C@H]3C(=O)C=C4[C@@H]5C[C@@](C)(C(=O)O)CC[C@]5(C)CC[C@@]4(C)[C@]3(C)CC[C@@H]12 (mixture of isomers) [YP024, cis-Cyclohexane-1,2-dicarboxylic acid mono-((3S,4aR,6aR,6bS,8aS,11S, 12aR,14aR,14bS)-11-carboxy-4,4,6a,6b,8a,11,14b-heptamethyl-14-oxo-1,2,3,4,4a,5,6,6a,6b, 7,8,8a,9,10,11,12, 12a, 14, 14a, 14b-icosahydro-picen-3-yl) ester] | slight increase in viability | – | – |
| COC(=O)[C@@]1(C)CC[C@]2(C)CCC3(C)C(=CC(=O)C4[C@@]5(C)CC[C@H](OC(=O)c6ccccc6C(=O)O)C(C)(C)C5CC[C@]43C)[C@@H]2C1 (stereo in doubt) [YP015, Phthalic acid mono-(11-methoxycarbonyl-4,4,6a,6b,8a,11,14b-heptamethyl-14-oxo-1,2,3,4,4a,5,6,6a,6b,7,8,8a,9, 10,11,12,12a, 14,14a, 14b-icosahydro-picen-3-yl) ester] | no decrease in viability | – | anti-proliferative properties compared with carbenoxolone sodium ([2]; at equal concentrations): more potent |
| CC(=O)CC(=O)OC1CCC2(C)C(CCC3(C)C2C(=O)C=C2C4CC(C)(C(=O)O)CCC4(C)CCC23C)C1(C)C (stereo not shown) [YP016, 2,4a,6a,6b,9,9,12a-Heptamethyl-13-oxo-10-(3-oxo-butyryloxy)-1,2,3,4,4a,5,6,6a,6b, 7,8,8a,9,10,11,12, 12a,12b,13,14b-icosahydro-picene-2-carboxylic acid] | no decrease in viability | – | – |
| CC(C)(CC(=O)O[C@H]1CC[C@]2(C)[C@H]3C(=O)C=C4[C@@H]5C[C@@](C)(C(=O)O)CC[C@]5(C)CC[C@@]4(C)[C@]3(C)CC[C@H]2C1(C)C)C(=O)O [YP022, 2,2-Dimethyl-succinic acid 4-((3S,4aR,6aR,6bS,8aS,11S,12aR,14aR,14bS)-11-carboxy-4,4,6a,6b,8a,11,14b-heptamethyl-14-oxo-1,2,3,4,4a,5,6,6a,6b,7,8,8a,9,10,11,12, 12a,14,14a, 14b-icosahydro-picen-3-yl) ester] | – | significantly less luminescence | – |
| CC1(C)[C@@H](OC(=O)C2=C(C(=O)O)CCC2)CC[C@]2(C)[C@H]3C(=O)C=C4[C@@H]5C[C@@](C)(C(=O)O)CC[C@]5(C)CC[C@@]4(C)[C@]3(C)CC[C@@H]12 [YP026, Cyclopent-1-ene-1,2-dicarboxylic acid mono-((3S,4aR,6aR,6bS,8aS,11S,12aR, 14aR,14bS)-11-carboxy-4,4,6a,6b,8a,11,14b-heptamethyl-14-oxo-1,2,3,4,4a,5,6,6a,6b,7,8,8a,9,10,11,12,12a,14,14a, 14b-icosahydro-picen-3-yl) ester] | slight increase in viability | significantly less luminescence | – |
| CC1(C)[C@@H](OC(=O)CCC(=O)O)CC[C@]2(C)[C@H]3C(=O)C=C4[C@@H]5C[C@@](C)(C(=O)O)CC[C@]5(C)CC[C@@]4(C)[C@]3(C)CC[C@@H]12 [carbenoxolone sodium, reference compound] | – | – | effect on NHEKa cell proliferation (ATP levels compared to the controls) ([2]; five-day culture, with retinol, various concentrations): suppresses NHEKa cell proliferation |
| CC1(C)[C@@H](OC(=O)CCC(=O)O)CC[C@]2(C)[C@H]3C(=O)C=C4[C@@H]5C[C@@](C)(C(=O)O)CC[C@]5(C)CC[C@@]4(C)[C@]3(C)CC[C@@H]12 [carbenoxolone, reference compound] | – | significantly less luminescence | viability of NHEKa cells (proportion of viable cells referenced to DMSO) ([1]; 1 μM and 2.5 μM): slight decrease in viability; inhibition of recombinant hRoDH-E2 activity (generation of retinal from retinol) [3]: reduce the generation of retinal from retinol; luminescence detected compared to the untreated control (NHEKa cells; 5.0 μM inhibitor): 41% |
| trans-Cyclohexane-1,2-dicarboxylic acid mono-((3S,4aR,6aR,6bS,8aS,11S, 12aR,14aR,14bS)-11-carboxy-4,4,6a,6b,8a,11,14b-heptamethyl-14-oxo-1,2,3,4,4a,5,6,6a,6b, 7,8,8a,9,10,11,12,12a,14,14a, 14b-icosahydro-picen-3-yl) ester [YP023] | slight increase in viability | – | – |
